The values that follow come from patent US20040102320A1, “NATURAL HERBICIDE FOR WEED REMOVAL” (priority 2002, published 2004).

In this assay the test system is grass, including crabgrass and other weeds. The note with it: 100% of sodium bicarbonate.

On to `O=C([O-])O.[Na+]` [sodium bicarbonate], for which the killing of grass entry was “would kill grass, including crabgrass and other weeds”.
